Laboratory results from ChEMBL document CHEMBL4831500, “Discovery of first-in-class imidazothiazole-based potent and selective ErbB4 (HER4) kinase inhibitors” (Eur J Med Chem, 2021).

Legend:
[1] = test system: Panel NCI-60 (60 carcinoma cell lines); assay: Growth inhibition of human panel NCI-60 (60 carcinoma cells) assessed as growth percent at 10 uM measured after 48 hrs by SRB assay relative to control; type: functional; conditions: read-out: Activity
NCI-H522 = assay: Antiproliferative activity against human NCI-H522 cells assessed as cell growth inhibition measured after 48 hrs by SRB assay; type: functional, cell-based; conditions: NCI-H522, 48 h
SK-MEL-5 [2] = assay: Antiproliferative activity against human SK-MEL-5 cells assessed as cell growth inhibition measured after 48 hrs by SRB assay; type: functional, cell-based; conditions: SK-MEL-5, 48 h
[3] = molecular target: Vascular endothelial growth factor receptor 2 (Homo sapiens, UniProt P35968); assay: Inhibition of KDR (unknown origin) at 10 uM incubated for 40 mins in presence of Mg/ATP mix by [gamma p33]-ATP based scintillation counting method relative to control
UO-31 [4] = assay: Antiproliferative activity against human UO-31 cells assessed as cell growth inhibition measured after 48 hrs by SRB assay; type: functional, cell-based; conditions: UO-31, 48 h
[5] = molecular target: Receptor tyrosine-protein kinase erbB-4 (Homo sapiens, UniProt Q15303); assay: Inhibition of ErbB4 (unknown origin) at 10 uM incubated for 40 mins in presence of Mg/ATP mix by [gamma p33]-ATP based scintillation counting method relative to control
Chain of Receptor tyrosine-protein kinase erbB-4 (Q15303 whole entry): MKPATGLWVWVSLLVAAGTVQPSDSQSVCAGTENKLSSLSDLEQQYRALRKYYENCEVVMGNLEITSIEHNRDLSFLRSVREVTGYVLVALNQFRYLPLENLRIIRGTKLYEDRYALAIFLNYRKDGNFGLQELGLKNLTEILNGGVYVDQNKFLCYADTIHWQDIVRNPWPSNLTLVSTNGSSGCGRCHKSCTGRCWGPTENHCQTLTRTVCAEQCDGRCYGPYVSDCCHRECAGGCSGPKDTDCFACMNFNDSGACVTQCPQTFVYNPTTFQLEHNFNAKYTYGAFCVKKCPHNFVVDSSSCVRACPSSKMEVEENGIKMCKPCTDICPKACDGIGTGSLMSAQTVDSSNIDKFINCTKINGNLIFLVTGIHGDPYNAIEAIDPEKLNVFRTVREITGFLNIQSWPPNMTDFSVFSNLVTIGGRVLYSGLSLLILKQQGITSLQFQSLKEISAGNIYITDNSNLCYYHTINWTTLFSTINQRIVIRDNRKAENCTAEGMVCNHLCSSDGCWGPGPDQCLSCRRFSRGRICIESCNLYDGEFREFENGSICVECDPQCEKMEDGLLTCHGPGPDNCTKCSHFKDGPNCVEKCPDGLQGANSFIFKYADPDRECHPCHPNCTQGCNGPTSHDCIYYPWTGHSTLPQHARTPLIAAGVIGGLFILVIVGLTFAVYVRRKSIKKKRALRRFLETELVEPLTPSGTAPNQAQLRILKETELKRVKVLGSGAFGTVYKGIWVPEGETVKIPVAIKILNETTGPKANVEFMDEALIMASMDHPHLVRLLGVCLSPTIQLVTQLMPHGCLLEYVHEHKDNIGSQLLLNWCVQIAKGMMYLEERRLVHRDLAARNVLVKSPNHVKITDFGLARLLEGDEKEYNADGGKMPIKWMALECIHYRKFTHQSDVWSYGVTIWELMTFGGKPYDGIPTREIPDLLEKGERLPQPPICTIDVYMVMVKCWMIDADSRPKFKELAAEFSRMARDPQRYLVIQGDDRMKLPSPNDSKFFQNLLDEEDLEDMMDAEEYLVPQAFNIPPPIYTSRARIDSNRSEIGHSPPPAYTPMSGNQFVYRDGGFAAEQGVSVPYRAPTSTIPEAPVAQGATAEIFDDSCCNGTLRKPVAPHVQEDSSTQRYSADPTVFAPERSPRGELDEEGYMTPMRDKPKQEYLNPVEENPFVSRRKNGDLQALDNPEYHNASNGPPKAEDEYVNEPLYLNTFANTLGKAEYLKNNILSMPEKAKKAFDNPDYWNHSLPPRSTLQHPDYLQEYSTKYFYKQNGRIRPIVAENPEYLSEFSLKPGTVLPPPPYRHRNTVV

DU-145 [6] = assay: Antiproliferative activity against human DU-145 cells assessed as cell growth inhibition measured after 48 hrs by SRB assay; type: functional, cell-based; conditions: DU-145, 48 h
[7] = molecular target: Receptor tyrosine-protein kinase erbB-2 (Homo sapiens) (UniProt P04626); assay: Inhibition of ErbB2 (unknown origin) at 10 uM incubated for 40 mins in presence of Mg/ATP mix by [gamma p33]-ATP based scintillation counting method relative to control
[8] = test system: Serine/threonine-protein kinase B-raf (Homo sapiens), P15056 [V600E]; assay: Inhibition of BRAF V600E mutant (unknown origin) at 10 uM incubated for 40 mins in presence of Mg/ATP mix by [gamma p33]-ATP based scintillation counting method relative to control
Chain of Serine/threonine-protein kinase B-raf (Homo sapiens), P15056 [V600E] (P15056 whole entry V600E): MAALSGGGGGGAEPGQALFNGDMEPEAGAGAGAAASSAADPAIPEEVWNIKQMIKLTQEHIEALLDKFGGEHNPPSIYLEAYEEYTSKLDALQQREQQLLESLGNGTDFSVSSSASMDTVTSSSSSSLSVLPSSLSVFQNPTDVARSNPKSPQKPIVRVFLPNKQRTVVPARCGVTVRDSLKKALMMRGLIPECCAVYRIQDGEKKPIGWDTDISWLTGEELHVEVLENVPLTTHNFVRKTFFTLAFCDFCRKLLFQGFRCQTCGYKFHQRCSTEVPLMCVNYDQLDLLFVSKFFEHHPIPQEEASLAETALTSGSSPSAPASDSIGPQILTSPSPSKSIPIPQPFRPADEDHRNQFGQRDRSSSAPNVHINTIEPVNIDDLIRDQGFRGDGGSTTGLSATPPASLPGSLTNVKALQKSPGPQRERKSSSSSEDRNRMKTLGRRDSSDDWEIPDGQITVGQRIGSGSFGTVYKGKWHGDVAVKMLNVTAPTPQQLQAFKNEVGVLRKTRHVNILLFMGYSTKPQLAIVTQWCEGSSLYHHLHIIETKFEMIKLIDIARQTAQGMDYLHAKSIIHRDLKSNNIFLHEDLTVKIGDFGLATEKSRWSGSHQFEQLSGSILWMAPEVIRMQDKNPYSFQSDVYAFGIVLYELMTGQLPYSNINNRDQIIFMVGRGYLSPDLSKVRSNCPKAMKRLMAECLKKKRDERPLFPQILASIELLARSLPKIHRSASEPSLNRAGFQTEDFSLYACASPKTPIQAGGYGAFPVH

[9] = Cytotoxicity against human WI-38 cells assessed as cell growth inhibition at 10 uM measured after 48 hrs by SRB assay relative to control; type: cell-based
[10] = molecular target: Fibroblast growth factor receptor 1 (Homo sapiens) (UniProt P11362); assay: Inhibition of FGFR1 (unknown origin) at 10 uM incubated for 40 mins in presence of Mg/ATP mix by [gamma p33]-ATP based scintillation counting method relative to control
Chain of Fibroblast growth factor receptor 1 (Homo sapiens) (P11362 22-822 limits assumed): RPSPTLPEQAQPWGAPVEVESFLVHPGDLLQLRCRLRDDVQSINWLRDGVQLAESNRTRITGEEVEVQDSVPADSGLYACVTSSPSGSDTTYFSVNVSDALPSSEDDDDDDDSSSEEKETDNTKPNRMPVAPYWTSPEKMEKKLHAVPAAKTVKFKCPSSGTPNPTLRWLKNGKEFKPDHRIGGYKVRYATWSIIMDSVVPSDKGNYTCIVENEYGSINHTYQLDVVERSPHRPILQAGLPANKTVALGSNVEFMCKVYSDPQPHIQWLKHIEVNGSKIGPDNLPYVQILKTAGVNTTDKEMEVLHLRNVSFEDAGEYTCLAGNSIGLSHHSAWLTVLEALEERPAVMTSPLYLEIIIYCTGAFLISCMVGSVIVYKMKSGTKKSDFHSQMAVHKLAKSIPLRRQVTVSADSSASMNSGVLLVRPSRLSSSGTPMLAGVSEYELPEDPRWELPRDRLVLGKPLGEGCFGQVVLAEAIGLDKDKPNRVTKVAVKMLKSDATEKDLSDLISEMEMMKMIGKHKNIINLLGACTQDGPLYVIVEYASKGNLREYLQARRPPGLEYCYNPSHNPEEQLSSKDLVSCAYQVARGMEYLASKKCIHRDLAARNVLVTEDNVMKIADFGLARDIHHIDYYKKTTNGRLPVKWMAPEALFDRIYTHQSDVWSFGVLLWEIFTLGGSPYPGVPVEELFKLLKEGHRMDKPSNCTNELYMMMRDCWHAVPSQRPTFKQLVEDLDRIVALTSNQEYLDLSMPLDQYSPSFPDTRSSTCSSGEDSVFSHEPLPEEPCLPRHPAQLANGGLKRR

SNB-75 [11] = assay: Antiproliferative activity against human SNB-75 cells assessed as cell growth inhibition at 10 uM measured after 48 hrs by SRB assay relative to control; type: functional
[12] = molecular target: Proto-oncogene tyrosine-protein kinase Src (Homo sapiens) (UniProt P12931); assay: Inhibition of C-SRC (unknown origin) at 10 uM incubated for 40 mins in presence of Mg/ATP mix by [gamma p33]-ATP based scintillation counting method relative to control
[13] = molecular target: Epidermal growth factor receptor (Homo sapiens, UniProt P00533); assay: Inhibition of EGFR (unknown origin) at 10 uM incubated for 40 mins in presence of Mg/ATP mix by [gamma p33]-ATP based scintillation counting method relative to control
Chain of Epidermal growth factor receptor (P00533 whole entry): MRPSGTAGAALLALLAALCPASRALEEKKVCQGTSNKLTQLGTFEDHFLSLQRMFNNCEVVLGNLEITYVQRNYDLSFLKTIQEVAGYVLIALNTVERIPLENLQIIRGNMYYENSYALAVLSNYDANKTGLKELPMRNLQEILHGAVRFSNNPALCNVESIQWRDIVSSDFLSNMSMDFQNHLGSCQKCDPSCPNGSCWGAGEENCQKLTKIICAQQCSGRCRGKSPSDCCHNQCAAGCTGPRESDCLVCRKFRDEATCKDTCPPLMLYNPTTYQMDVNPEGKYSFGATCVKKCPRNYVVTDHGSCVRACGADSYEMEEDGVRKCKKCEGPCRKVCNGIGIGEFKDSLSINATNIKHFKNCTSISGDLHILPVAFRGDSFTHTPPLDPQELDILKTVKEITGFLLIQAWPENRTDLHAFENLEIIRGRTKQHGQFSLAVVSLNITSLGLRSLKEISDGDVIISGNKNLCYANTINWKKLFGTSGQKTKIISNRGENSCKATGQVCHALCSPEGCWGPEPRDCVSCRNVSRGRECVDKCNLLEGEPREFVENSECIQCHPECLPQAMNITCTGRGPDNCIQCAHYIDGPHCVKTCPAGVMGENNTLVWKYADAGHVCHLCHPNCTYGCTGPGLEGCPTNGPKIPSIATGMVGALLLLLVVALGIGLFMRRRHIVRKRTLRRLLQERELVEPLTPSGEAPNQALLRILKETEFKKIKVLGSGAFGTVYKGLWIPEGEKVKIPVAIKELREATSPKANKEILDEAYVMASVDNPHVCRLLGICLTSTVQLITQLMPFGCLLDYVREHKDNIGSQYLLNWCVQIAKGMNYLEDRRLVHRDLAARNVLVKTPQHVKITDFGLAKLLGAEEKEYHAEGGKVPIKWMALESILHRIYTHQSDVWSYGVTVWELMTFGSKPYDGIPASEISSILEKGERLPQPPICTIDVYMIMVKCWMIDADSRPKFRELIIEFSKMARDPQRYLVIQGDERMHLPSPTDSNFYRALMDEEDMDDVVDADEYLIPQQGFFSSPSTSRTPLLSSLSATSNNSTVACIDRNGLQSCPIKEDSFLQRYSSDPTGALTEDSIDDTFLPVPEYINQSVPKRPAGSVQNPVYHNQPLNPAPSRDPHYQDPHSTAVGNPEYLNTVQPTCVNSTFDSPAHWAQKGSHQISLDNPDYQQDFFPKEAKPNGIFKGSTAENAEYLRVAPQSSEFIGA

[14] = molecular target: RAF proto-oncogene serine/threonine-protein kinase (Homo sapiens, UniProt P04049); assay: Inhibition of RAF1 (unknown origin) at 10 uM incubated for 40 mins in presence of Mg/ATP mix by [gamma p33]-ATP based scintillation counting method relative to control
Chain of RAF proto-oncogene serine/threonine-protein kinase (P04049 whole entry): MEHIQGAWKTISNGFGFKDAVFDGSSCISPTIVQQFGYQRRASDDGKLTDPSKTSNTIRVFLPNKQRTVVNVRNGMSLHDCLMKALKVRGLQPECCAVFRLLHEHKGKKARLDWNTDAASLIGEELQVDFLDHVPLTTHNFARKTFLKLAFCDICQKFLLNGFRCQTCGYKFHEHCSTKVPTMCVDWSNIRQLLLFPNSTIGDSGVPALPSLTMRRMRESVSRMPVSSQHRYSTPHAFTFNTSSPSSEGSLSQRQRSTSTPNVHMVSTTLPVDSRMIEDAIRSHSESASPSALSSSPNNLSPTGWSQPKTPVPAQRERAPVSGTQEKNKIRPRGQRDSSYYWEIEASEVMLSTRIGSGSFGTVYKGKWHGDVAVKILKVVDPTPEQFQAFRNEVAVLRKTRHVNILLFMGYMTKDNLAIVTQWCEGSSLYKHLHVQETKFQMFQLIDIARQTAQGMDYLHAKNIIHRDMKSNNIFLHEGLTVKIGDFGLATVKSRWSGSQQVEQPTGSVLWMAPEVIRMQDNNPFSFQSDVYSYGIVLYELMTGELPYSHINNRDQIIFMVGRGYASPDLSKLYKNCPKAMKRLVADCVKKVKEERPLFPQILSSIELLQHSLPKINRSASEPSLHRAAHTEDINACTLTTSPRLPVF

MDA-MB-468 [15] = assay: Antiproliferative activity against human MDA-MB-468 cells assessed as cell growth inhibition at 10 uM measured after 48 hrs by SRB assay relative to control; type: functional
HL-60(TB) [16] = assay: Antiproliferative activity against human HL-60(TB) cells assessed as cell growth inhibition measured after 48 hrs by SRB assay; type: functional, cell-based; conditions: HL-60, 48 h
OVCAR-4 [17] = assay: Antiproliferative activity against human OVCAR-4 cells assessed as cell growth inhibition measured after 48 hrs by SRB assay; type: functional, cell-based; conditions: OVCAR-4, 48 h
WI-38 = assay: Cytotoxicity against human WI-38 cells assessed as cell growth inhibition measured after 48 hrs by SRB assay; type: cell-based; conditions: WI-38, 48 h
[18] = molecular target: Serine/threonine-protein kinase B-raf (Homo sapiens, UniProt P15056); assay: Inhibition of wild type B-RAF (unknown origin) at 10 uM incubated for 40 mins in presence of Mg/ATP mix by [gamma p33]-ATP based scintillation counting method relative to control
Chain of Serine/threonine-protein kinase B-raf (P15056 whole entry): as the sequence (P15056 whole entry V600E) above, with E600V counted along it

OVCAR-4 [19] = assay: Antiproliferative activity against human OVCAR-4 cells assessed as cell growth inhibition at 10 uM measured after 48 hrs by SRB assay relative to control; type: functional
SK-MEL-5 [20] = assay: Antiproliferative activity against human SK-MEL-5 cells assessed as cell growth inhibition at 10 uM measured after 48 hrs by SRB assay relative to control; type: functional
DU-145 [21] = assay: Antiproliferative activity against human DU-145 cells assessed as cell growth inhibition at 10 uM measured after 48 hrs by SRB assay relative to control; type: functional
UO-31 [22] = assay: Antiproliferative activity against human UO-31 cells assessed as cell growth inhibition at 10 uM measured after 48 hrs by SRB assay relative to control; type: functional
SNB-75 [23] = assay: Antiproliferative activity against human SNB-75 cells assessed as cell growth inhibition measured after 48 hrs by SRB assay; type: functional, cell-based; conditions: SNB-75, 48 h
MDA-MB-468 [24] = assay: Antiproliferative activity against human MDA-MB-468 cells assessed as cell growth inhibition measured after 48 hrs by SRB assay; type: functional, cell-based; conditions: MDA-MB-468, 48 h
HL-60(TB) [25] = assay: Antiproliferative activity against human HL-60(TB) cells assessed as cell growth inhibition at 10 uM measured after 48 hrs by SRB assay relative to control; type: functional
NCI-H322M = assay: Antiproliferative activity against human NCI-H322M cells assessed as cell growth inhibition measured after 48 hrs by SRB assay; type: functional, cell-based
U-251 = assay: Antiproliferative activity against human U-251 cells assessed as cell growth inhibition measured after 48 hrs by SRB assay; type: functional, cell-based; conditions: U-251, 48 h
MOLT-4 = assay: Antiproliferative activity against human MOLT-4 cells assessed as cell growth inhibition measured after 48 hrs by SRB assay; type: functional, cell-based; conditions: MOLT-4, 48 h
HCC 2998 = assay: Antiproliferative activity against human HCC 2998 cells assessed as cell growth inhibition measured after 48 hrs by SRB assay; type: functional, cell-based; conditions: HCC 2998, 48 h

## c1ccc(CCOc2cccc(-c3nc4sccn4c3-c3ccncn3)c2)cc1
[1]
  growth at 10 µM: 96.4%

## COc1cccc(-c2nc3occn3c2-c2ccnc(S(C)(=O)=O)n2)c1
[1]
  growth at 10 µM: 96%

## CC(C)N(CCOc1cccc(-c2nc3sccn3c2-c2ccnc(S(C)(=O)=O)n2)c1)C(C)C
[1]
  growth at 10 µM: 81.8%

## CN(C)CCOc1ccc(-c2nc3sccn3c2-c2ccnc(S(C)(=O)=O)n2)cc1
[1]
  growth at 10 µM: 102%

## CS(=O)(=O)c1nccc(-c2c(-c3ccc(OCc4ccccc4)cc3)nc3sccn23)n1
[1]
  growth at 10 µM: 95.1%

## CS(=O)(=O)c1nccc(-c2c(-c3cccc(O)c3)nc3occn23)n1
[1]
  growth at 10 µM: 102%

## CS(=O)(=O)c1nccc(-c2c(-c3cccc(OCCN4CCCC4)c3)nc3sccn23)n1
[1]
  growth at 10 µM: 94.2%

## CNC(=O)c1cc(Oc2ccc(NC(=O)Nc3ccc(Cl)c(C(F)(F)F)c3)cc2)ccn1 [SORAFENIB]
NCI-H522
  IC50: 5.01 µM
SK-MEL-5 [2]
  IC50: 2.51 µM

## CS(=O)(=O)c1nccc(-c2c(-c3cccc(OCc4ccc(F)cc4)c3)nc3sccn23)n1
[3]
  inhibition: 24.8%
UO-31 [4]
  IC50: 1.68 µM
[5]
  inhibition: 60.2%
DU-145 [6]
  IC50: 1.89 µM
[7]
  inhibition: -2.99%
[8]
  inhibition: 33.6%
[9]
  inhibition at 48 h, 10 µM: 21.6%
[10]
  inhibition: -0.04%
SK-MEL-5 [2]
  IC50: 1.54 µM
SNB-75 [11]
  inhibition at 10 µM: 4.08%
[12]
  inhibition: 2.46%
[13]
  inhibition: -5.54%
[14]
  inhibition: 10.8%
MDA-MB-468 [15]
  inhibition at 10 µM: 164%
HL-60(TB) [16]
  IC50: 3.36 µM
OVCAR-4 [17]
  IC50: 3.98 µM
WI-38
  IC50: 12.6 µM
[1]
  growth at 10 µM: 60.6%
[18]
  inhibition: 9.62%
OVCAR-4 [19]
  inhibition at 10 µM: 34.9%
SK-MEL-5 [20]
  inhibition at 10 µM: 94.6%
DU-145 [21]
  inhibition at 10 µM: 154%
UO-31 [22]
  inhibition at 10 µM: 124%
SNB-75 [23]
  IC50: 15.6 µM
MDA-MB-468 [24]
  IC50: 1.8 µM
HL-60(TB) [25]
  inhibition at 10 µM: 56.3%
NCI-H322M
  IC50: 1.82 µM

## Fc1ccc(CCOc2cccc(-c3nc4sccn4c3-c3ccncn3)c2)cc1
[1]
  growth at 10 µM: 96%

## CS(=O)(=O)c1cccc(-c2c(-c3cccc(O)c3)nc3sccn23)c1
[1]
  growth at 10 µM: 99.2%

## CS(=O)(=O)c1nccc(-c2c(-c3ccc(O)cc3)nc3sccn23)n1
[1]
  growth at 10 µM: 99.7%

## Oc1cccc(-c2nc3sccn3c2-c2ccccc2)c1
[1]
  growth at 10 µM: 94%

## CS(=O)(=O)c1nccc(-c2c(-c3cccc(OCc4ccc(F)cc4)c3)nc3occn23)n1
[1]
  growth at 10 µM: 89.7%

## CC(C)N(CCOc1ccc(-c2nc3sccn3c2-c2ccnc(S(C)(=O)=O)n2)cc1)C(C)C
[1]
  growth at 10 µM: 81.1%

## CS(=O)(=O)c1nccc(-c2c(-c3ccc(OCCN4CCOCC4)cc3)nc3sccn23)n1
[1]
  growth at 10 µM: 101%

## CS(=O)(=O)c1cccc(-c2c(-c3cccc(OCc4ccc(F)cc4)c3)nc3sccn23)c1
[1]
  growth at 10 µM: 74.7%

## c1ccc(CCOc2cccc(-c3nc4sccn4c3-c3ccccc3)c2)cc1
[1]
  growth at 10 µM: 98.9%

## CS(=O)(=O)c1nccc(-c2c(-c3cccc(OCCc4ccc(F)cc4)c3)nc3sccn23)n1
[1]
  growth at 10 µM: 91.6%

## Fc1ccc(COc2cccc(-c3nc4sccn4c3-c3ccccc3)c2)cc1
[1]
  growth at 10 µM: 97.8%

## c1ccc(COc2cccc(-c3nc4sccn4c3-c3ccccc3)c2)cc1
[1]
  growth at 10 µM: 99.3%

## CS(=O)(=O)c1nccc(-c2c(-c3cccc(OCc4ccccc4)c3)nc3occn23)n1
[1]
  growth at 10 µM: 101%

## CS(=O)(=O)c1nccc(-c2c(-c3cccc(OCC(=O)c4ccccc4)c3)nc3sccn23)n1
[1]
  growth at 10 µM: 94%

## CS(=O)(=O)c1cccc(-c2c(-c3cccc(OCc4ccccc4)c3)nc3sccn23)c1
[1]
  growth at 10 µM: 87.6%

## CS(=O)(=O)c1nccc(-c2c(-c3cccc(OCCc4ccccc4)c3)nc3sccn23)n1
[1]
  growth at 10 µM: 96%

## CS(=O)(=O)c1nccc(-c2c(-c3cccc(OCCN4CCOCC4)c3)nc3sccn23)n1
[1]
  growth at 10 µM: 83.5%

## CS(=O)(=O)c1nccc(-c2c(-c3ccc(OCCc4ccccc4)cc3)nc3sccn23)n1
[1]
  growth at 10 µM: 91.2%

## CS(=O)(=O)c1cccc(-c2c(-c3cccc(OCCc4ccc(F)cc4)c3)nc3sccn23)c1
[1]
  growth at 10 µM: 82.9%

## O=C(COc1cccc(-c2nc3sccn3c2-c2ccccc2)c1)c1ccccc1
[1]
  growth at 10 µM: 84.6%

## CS(=O)(=O)c1cccc(-c2c(-c3cccc(OCC(=O)c4ccccc4)c3)nc3sccn23)c1
[1]
  growth at 10 µM: 91%

## Fc1ccc(COc2cccc(-c3nc4sccn4c3-c3ccncn3)c2)cc1
[1]
  growth at 10 µM: 76.3%

## CS(=O)(=O)c1cccc(-c2c(-c3cccc(OCCc4ccccc4)c3)nc3sccn23)c1
[1]
  growth at 10 µM: 95.3%

## CS(=O)(=O)c1nccc(-c2c(-c3cccc(OS(N)(=O)=O)c3)nc3sccn23)n1
[1]
  growth at 10 µM: 97.9%

## C=CC(=O)N1CCC[C@@H](n2nc(-c3ccc(Oc4ccccc4)cc3)c3c(N)ncnc32)C1 [IBRUTINIB]
UO-31 [4]
  IC50: 1.26 µM
DU-145 [6]
  IC50: 2 µM
NCI-H522
  IC50: 0.06 µM
SK-MEL-5 [2]
  IC50: 6.31 µM
HL-60(TB) [16]
  IC50: 19.9 µM
OVCAR-4 [17]
  IC50: 7.94 µM
U-251
  IC50: 6.31 µM
MOLT-4
  IC50: 3.98 µM
HCC 2998
  IC50: 15.8 µM
SNB-75 [23]
  IC50: 3.16 µM
MDA-MB-468 [24]
  IC50: 0.03 µM
NCI-H322M
  IC50: 0.1 µM

## COc1cccc(-c2nc3sccn3c2-c2cccc(S(C)(=O)=O)c2)c1
[1]
  growth at 10 µM: 99.8%

## Oc1cccc(-c2nc3sccn3c2-c2ccncn2)c1
[1]
  growth at 10 µM: 85.5%

## CS(=O)(=O)c1nccc(-c2c(-c3ccc(OCCN4CCCC4)cc3)nc3sccn23)n1
[1]
  growth at 10 µM: 101%

## CS(=O)(=O)c1nccc(-c2c(-c3cccc(O)c3)nc3sccn23)n1
[1]
  growth at 10 µM: 90%

## CN(C)CCOc1cccc(-c2nc3sccn3c2-c2ccnc(S(C)(=O)=O)n2)c1
[1]
  growth at 10 µM: 93.7%

## COc1ccc(-c2nc3sccn3c2-c2ccnc(S(C)(=O)=O)n2)cc1
[1]
  growth at 10 µM: 73%

## O=C(COc1cccc(-c2nc3sccn3c2-c2ccncn2)c1)c1ccccc1
[1]
  growth at 10 µM: 97%

## Fc1ccc(CCOc2cccc(-c3nc4sccn4c3-c3ccccc3)c2)cc1
[1]
  growth at 10 µM: 87.5%

## COc1cccc(-c2nc3sccn3c2-c2ccccc2)c1
[1]
  growth at 10 µM: 96.6%
